Test results: patent publication US20170369928A1, “METHOD FOR EVALUATING DNA DAMAGE FROM ANALYTE” (SOGANG UNIVERSITY RESEARCH FOUNDATION, priority 2016, published 2017)

Experiments:
Escherichia coli [1] = experiment: single molecule DNA damage analysis (visualization of damaged lesions in genomic DNA of agarose-embedded cells); format: cell-based, Escherichia coli K-12 MG1655
Protocol: Escherichia coli K-12 MG1655 cells were grown in 5 mL LB broths in a shaking incubator (220 rpm) at 37° C. for six hours. Bacterial cells were harvested by centrifugation (10,000×g, 10 min) and washed twice with 0.85% NaCl solution and re-suspended in the same solution. The cell-suspension was then diluted such that OD600 was approximately between 0.5 and 1 and used for subsequent reactions.
Bacterial suspension (OD600=0.5) was mixed with 2% LGT agarose solution and then dispensed as 20 μL droplets on a surface and solidified in the refrigerator (4° C.) for 10 minutes. […] After incubation, all these plugs were washed in 0.85% NaCl solution for half an hour.
After alcohol treatment, bacteria embedded agarose plugs were subjected to lysis with proteinase K solution (50 units in 500 μL, Tris 10 mM and EDTA 1 mM, pH 8.0 (1×TE)) at 42° C. for 150 min. The plugs were then washed in 1 mL 1×TE overnight. For removing oxidized base adducts, agarose plugs were incubated with a mixture of 10 units Fpg, 10 units Nfo, and 20 units Nei in NEB buffer2 (50 mM NaCl, 10 mM Tris-HCl, 10 mM MgCl2, 1 mM DTT, pH 7.9) at 37° C. for one hour. After enzyme treatment, the plugs were washed twice with 1 mL 1×TE buffer for half-an-hour. The plugs were then incubated with 5 units DNA Polymerase I, 1 mM AlexaFluor-647 labeled dUTP and dNTP mix (1 mM dATP, 1 mM dGTP, 100 μM dCTP, 100 μM dTTP) in the polymerase reaction buffer (50 mM Tris-HCl, 1 mM DTT, 10 mM MgCl2, pH 7.5) at 37° C. for one hour to label gaps or nicks. […] After nick translation, the plugs were washed three times in 1 mL 1×TE buffer for one hour. Then agarose plugs were melted in 400 μL 1×TE buffer at 65° C. for 15 min and stained with 1 μM YOYO-1.
A PDMS device was mounted on the positively charged surface. Then, the solution of DNA molecules melted from low gelling temperature agarose plug was loaded onto the entrance of the microfluidic channels. While the solution moved through the microchannels by capillary action, DNA molecules were elongated and deposited on the positively charged surface.

Escherichia coli [2] = conditions: 30 minutes incubation in ethanol

In the case of `CCO` [ethanol, Ethanol], the “number of DNA lesions corresponding to 17% ethanol” value (Escherichia coli [1]; 17% ethanol, 30 minutes, glycosylase mix) is reported as 16.4 lesions/genome, the “DNA length per one lesion at 17% ethanol” value (Escherichia coli [1]; 17% ethanol, 30 minutes, glycosylase mix, one lesion per ~300 kb) is reported as ~300 kb and the “increase in number of DNA lesions with every 1% increase in ethanol concentration” value (Escherichia coli [1]; E. coli embedded agarose plug, 30 minutes incubation, ethanol 5%-40%, glycosylase mix (Fpg, Nfo, Nei), linear fit r^2=0.98) is reported as 0.88 lesions/genome. The “labels per genome, ethanol incubation without glycosylase treatment” value (Escherichia coli [1]; without glycosylase treatment (triangles in FIG. 2A), 30 minutes incubation) was 1.1-1.4 labels per genome and the “ethanol concentration above which bacterial cells could not survive” value (Escherichia coli [2]) was “above 17%”.
